Key:
Type in all cases: in vivo
Abutilon theophrasti = test: Post-emergence herbicidal action in greenhouse against ABUTH; conditions: post-emergence spray, 600 l/ha water, visual rating after ca. 3 weeks vs untreated controls, 100% = plants dead, 0% = like control plants
Description: (§1) Biologische Beispiele: • Die folgenden Abkürzungen werden für die in den folgenden Tabellen aufgeführten Kultur- und Schadpflanzen verwendet: ABUTH: Abutilon theophrasti ALOMY: Alopecurus myosuroides AMARE: Amaranthus retroflexus BRSNS: Brassica napus DIGSA: Digitaria sanguinalis ECHCG: Echinochloa crus-galli GLXMA: Glycine max KCHSC: Kochia scoparia LOLRI: Lolium rigidum MATIN: Matricaria inodora ORYZA: Oryza sativa PHPBU: Pharbitis purpurea POLCO: Polygonum convolvulus SETVI: Setaria viridis VERPE: Veronica persica VIOTR: Viola tricolor TRZAS: Triticum aestivum ZEAMX: Zea mays • A. Herbizide Wirkung im Nachauflauf
(§2) Samen von mono- bzw. dikotylen Unkrautpflanzen wurden in Kunststoff- oder Holzfasertöpfen in sandigem Lehmboden ausgelegt, mit Erde abgedeckt und im Gewächshaus unter kontrollierten Wachstumsbedingungen angezogen. 2 bis 3 Wochen nach der Aussaat wurden die Versuchspflanzen im Einblattstadium behandelt. Die in Form von benetzbaren Pulvern (WP) oder als Emulsionskonzentrate (EC) formulierten erfindungsgemäßen Verbindungen wurden dann als wässrige Suspension bzw. Emulsion unter Zusatz von 0,5% Additiv mit einer Wasseraufwandmenge von umgerechnet 600 l/ha auf die grünen Pflanzenteile gesprüht. Nach ca. 3 Wochen Standzeit der Versuchspflanzen im Gewächshaus, unter optimalen Wachstumsbedingungen, wurde die Wirkung der Präparate visuell im Vergleich zu unbehandelten Kontrollen bonitiert. Beispielsweise bedeutet 100% Wirkung = Pflanzen sind abgestorben, 0% Wirkung = wie Kontrollpflanzen.
(§3) In den nachstehenden Tabellen A1 bis A11 sind die Wirkungen ausgewählter Verbindungen der allgemeinen Formel (I) gemäß der Tabelle 1 auf verschiedene Schadpflanzen und einer Aufwandmenge entsprechend 20 g/ha und niedriger, die gemäß zuvor genannter Versuchsvorschrift erhalten wurden, dargestellt. Tabelle A1a: Nachauflaufwirkung bei 1,25 g/ha gegen ABUTH in %

Alopecurus myosuroides = test: Post-emergence herbicidal action in greenhouse against ALOMY; conditions: post-emergence spray, 600 l/ha water, visual rating after ca. 3 weeks vs untreated controls, 100% = plants dead, 0% = like control plants
Description: as §1, §2, §3

Amaranthus retroflexus = test: Post-emergence herbicidal action in greenhouse against AMARE; conditions: post-emergence spray, 600 l/ha water, visual rating after ca. 3 weeks vs untreated controls, 100% = plants dead, 0% = like control plants
Description: as §1, §2, §3

Digitaria sanguinalis = test: Post-emergence herbicidal action in greenhouse against DIGSA; conditions: visual rating after ca. 3 weeks
Description: as §1, §2, §3

Lolium rigidum = test: Post-emergence herbicidal action in greenhouse against LOLRI; conditions: 20 g/ha; post-emergence spray, 600 l/ha water; visual rating after ca. 3 weeks vs untreated controls; 100% = plants dead, 0% = like control plants
Description: as §1, §2, §3

Matricaria inodora = test: Post-emergence herbicidal action in greenhouse against MATIN; conditions: visual rating after ca. 3 weeks
Description: as §1, §2, §3

Pharbitis purpurea = test: Post-emergence herbicidal action in greenhouse against PHBPU; conditions: visual rating after ca. 3 weeks
Description: as §1, §2, §3

Polygonum convolvulus = test: Post-emergence herbicidal action in greenhouse against POLCO; conditions: visual rating after ca. 3 weeks
Description: as §1, §2, §3

Setaria viridis = test: Post-emergence herbicidal action in greenhouse against SETVI; conditions: visual rating after ca. 3 weeks
Description: as §1, §2, §3

Veronica persica = test: Post-emergence herbicidal action in greenhouse against VERPE; conditions: visual rating after ca. 3 weeks
Description: as §1, §2, §3

Viola tricolor = test: Post-emergence herbicidal action in greenhouse against VIOTR; conditions: visual rating after ca. 3 weeks
Description: as §1, §2, §3

Zea mays = test: Post-emergence action on crop plants in greenhouse, ZEAMX; conditions: crop plant, 100% = plants dead, 0% = like control plants
Description: as §1
as §2, with “Kulturpflanzen” for “Unkrautpflanzen”
as §3, with “B1” for “A1”, “B4” for “A11”, “Kulturpflanzen” for “Schadpflanzen”, “B1a:” for “A1a:”, “ZEAMX” for “ABUTH”

Triticum aestivum = test: Post-emergence action on crop plants in greenhouse, TRZAS; conditions: crop plant, visual rating after ca. 3 weeks, 100% = plants dead, 0% = like control plants
Description: as §1
as §2, with “Kulturpflanzen” for “Unkrautpflanzen”
as §3, with “B1” for “A1”, “B4” for “A11”, “Kulturpflanzen” for “Schadpflanzen”, “B1a:” for “A1a:”, “ZEAMX” for “ABUTH”

Oryza sativa = test: Post-emergence action on crop plants in greenhouse, ORYZA; conditions: crop plant, visual rating after ca. 3 weeks, 100% = plants dead, 0% = like control plants
Description: as §1
as §2, with “Kulturpflanzen” for “Unkrautpflanzen”
as §3, with “B1” for “A1”, “B4” for “A11”, “Kulturpflanzen” for “Schadpflanzen”, “B1a:” for “A1a:”, “ZEAMX” for “ABUTH”

[1] = 1,25 g/ha, post-emergence, visual rating after ca. 3 weeks

Row | Structure (SMILES) | Nachauflaufwirkung gegen ABUTH (Abutilon theophrasti; 1,25 g/ha) | Nachauflaufwirkung gegen ABUTH (Abutilon theophrasti; 5 g/ha) | Nachauflaufwirkung gegen ABUTH (Abutilon theophrasti; 20 g/ha) | Nachauflaufwirkung gegen AMARE (Amaranthus retroflexus; 1,25 g/ha) | Nachauflaufwirkung gegen AMARE (Amaranthus retroflexus; 5 g/ha) | Nachauflaufwirkung gegen AMARE (Amaranthus retroflexus; 20 g/ha) | Nachauflaufwirkung gegen DIGSA (Digitaria sanguinalis; 20 g/ha) | Nachauflaufwirkung gegen MATIN (Matricaria inodora; 20 g/ha) | Nachauflaufwirkung gegen PHBPU (Pharbitis purpurea; 1,25 g/ha) | Nachauflaufwirkung gegen PHBPU (Pharbitis purpurea; 5 g/ha) | Nachauflaufwirkung gegen PHBPU (Pharbitis purpurea; 20 g/ha) | Nachauflaufwirkung gegen POLCO (Polygonum convolvulus; 20 g/ha) | Nachauflaufwirkung gegen SETVI (Setaria viridis; 20 g/ha) | Nachauflaufwirkung gegen VERPE (Veronica persica; 5 g/ha) | Nachauflaufwirkung gegen VERPE (Veronica persica; 20 g/ha) | Nachauflaufwirkung gegen VIOTR (Viola tricolor; 1,25 g/ha) | Nachauflaufwirkung gegen VIOTR (Viola tricolor; 5 g/ha) | Nachauflaufwirkung gegen VIOTR (Viola tricolor; 20 g/ha) | Nachauflaufwirkung gegen TRZAS (Triticum aestivum; 1,25 g/ha) | Nachauflaufwirkung gegen TRZAS (Triticum aestivum; 5 g/ha) | other results
1 | COCCOC(=O)C(C)(C)OC(=O)c1cc(-n2c(=O)cc(C(F)(F)F)n(N)c2=O)c(F)cc1Cl [I.1-1] | 90% | 100% | 100% | 100% | 100% | 100% | 100% | 100% | 100% | 100% | 100% | 100% | 100% | 100% | 100% | 80% | 100% | 100% | 0% | 0% | Nachauflaufwirkung gegen ALOMY (Alopecurus myosuroides; 5 g/ha): 80%; Nachauflaufwirkung gegen ALOMY (Alopecurus myosuroides; 20 g/ha): 90%; Nachauflaufwirkung gegen DIGSA (Digitaria sanguinalis; 5 g/ha): 100%; Nachauflaufwirkung gegen LOLRI (Lolium rigidum): 90%; Nachauflaufwirkung gegen MATIN (Matricaria inodora; 5 g/ha): 100%; Nachauflaufwirkung gegen POLCO (Polygonum convolvulus; 5 g/ha): 100%; Nachauflaufwirkung gegen SETVI (Setaria viridis; 1,25 g/ha): 100%; Nachauflaufwirkung gegen SETVI (Setaria viridis; 5 g/ha): 100%; Nachauflaufwirkung gegen VERPE (Veronica persica; 1,25 g/ha): 100%; Nachauflaufwirkung gegen ZEAMX (Zea mays; [1]): 0%; Nachauflaufwirkung gegen ORYZA (Oryza sativa; 1,25 g/ha): 0%
2 | CC(C)(OC(=O)c1cc(-n2c(=O)cc(C(F)(F)F)n(N)c2=O)c(F)cc1Cl)C(=O)OCC#N [I.1-176, 1-(Cyanmethoxy)-2-methyl-1-oxopropan-2-yl-5-[3-amino-2,6-dioxo-4-(trifluormethyl)-3,6-dihydropyrimidin-1(2H)-yl]-2-chlor-4-fluorbenzoat] | 100% | 100% | 100% | 100% | 100% | 100% | 100% | 100% | 90% | 100% | 100% | 100% | 100% | 100% | 100% | 90% | 100% | 100% | 0% | 20% | Nachauflaufwirkung gegen ALOMY (Alopecurus myosuroides; 20 g/ha): 100%; Nachauflaufwirkung gegen DIGSA (Digitaria sanguinalis; 5 g/ha): 100%; Nachauflaufwirkung gegen LOLRI (Lolium rigidum): 80%; Nachauflaufwirkung gegen MATIN (Matricaria inodora; 5 g/ha): 100%; Nachauflaufwirkung gegen POLCO (Polygonum convolvulus; 5 g/ha): 100%; Nachauflaufwirkung gegen SETVI (Setaria viridis; 1,25 g/ha): 100%; Nachauflaufwirkung gegen SETVI (Setaria viridis; 5 g/ha): 100%; Nachauflaufwirkung gegen VERPE (Veronica persica; 1,25 g/ha): 80%; Nachauflaufwirkung gegen ORYZA (Oryza sativa; 1,25 g/ha): 20%
3 | CC(C)(OC(=O)c1cc(-n2c(=O)cc(C(F)(F)F)n(N)c2=O)ccc1Cl)C(=O)OCC#N [I.2-176, 1-(Cyanmethoxy)-2-methyl-1-oxopropan-2-yl-5-[3-amino-2,6-dioxo-4-(trifluormethyl)-3,6-dihydropyrimidin-1(2H)-yl]-2-chlorbenzoat] | 80% | 100% | 100% | 100% | 100% | 100% | 100% | 80% | 90% | 100% | 100% | 100% | 100% | 90% | 100% | 80% | 100% | 100% | 0% | 0% | Nachauflaufwirkung gegen ZEAMX (Zea mays; [1]): 20%; Nachauflaufwirkung gegen ORYZA (Oryza sativa; 1,25 g/ha): 0%; Nachauflaufwirkung gegen ORYZA (Oryza sativa; 5 g/ha): 20%
4 | CC(C)(OC(=O)c1cc(-n2c(=O)cc(C(F)(F)F)n(N)c2=O)ccc1Cl)C(=O)OCc1ccccn1 [I.2-286] | 80% | 100% | 100% | 80% | 100% | 100% | 100% | 100% | 100% | 100% | 100% | 100% | 100% | 100% | 100% | 100% | 100% | 100% | 0% | 0% | Nachauflaufwirkung gegen DIGSA (Digitaria sanguinalis; 5 g/ha): 80%; Nachauflaufwirkung gegen POLCO (Polygonum convolvulus; 5 g/ha): 100%; Nachauflaufwirkung gegen SETVI (Setaria viridis; 1,25 g/ha): 90%; Nachauflaufwirkung gegen SETVI (Setaria viridis; 5 g/ha): 100%; Nachauflaufwirkung gegen ZEAMX (Zea mays; [1]): 20%; Nachauflaufwirkung gegen TRZAS (Triticum aestivum; 20 g/ha): 10%; Nachauflaufwirkung gegen ORYZA (Oryza sativa; 1,25 g/ha): 0%; Nachauflaufwirkung gegen ORYZA (Oryza sativa; 5 g/ha): 0%
5 | C=CCOC(=O)C(C)(C)OC(=O)c1cc(-n2c(=O)cc(C(F)(F)F)n(N)c2=O)ccc1Cl [I.2-471] | 90% | 100% | 100% | 100% | 100% | 100% | 100% | 100% | 100% | 100% | 100% | 100% | 100% | 100% | 100% | 100% | 100% | 100% | 0% | 0% | Nachauflaufwirkung gegen ALOMY (Alopecurus myosuroides; 20 g/ha): 80%; Nachauflaufwirkung gegen DIGSA (Digitaria sanguinalis; 5 g/ha): 100%; Nachauflaufwirkung gegen MATIN (Matricaria inodora; 5 g/ha): 90%; Nachauflaufwirkung gegen SETVI (Setaria viridis; 1,25 g/ha): 100%; Nachauflaufwirkung gegen SETVI (Setaria viridis; 5 g/ha): 100%; Nachauflaufwirkung gegen VERPE (Veronica persica; 1,25 g/ha): 100%; Nachauflaufwirkung gegen ZEAMX (Zea mays; [1]): 20%; Nachauflaufwirkung gegen ZEAMX (Zea mays; 5 g/ha, post-emergence spray, 600 l/ha water, visual rating after ca. 3 weeks vs untreated controls): 20%; Nachauflaufwirkung gegen TRZAS (Triticum aestivum; 20 g/ha): 10%; Nachauflaufwirkung gegen ORYZA (Oryza sativa; 1,25 g/ha): 0%
